Results as given in US20240076279A1, “NOVEL BENZOAZEPINE COMPOUND, AND COMPOSITION AND USE THEREOF” (XUZHOU MEDICAL UNIVERSITY, priority 2021, published 2024).

Experiments:
[1] = tested on: ADPKD patients; conditions: cited from earlier work
[2] = tested on: PKD1 knockout mice; assay: PKD mouse experiment; assay type: in vivo; conditions: 2 mg/kg subcutaneous injection, seven days of administration
Description: Such compounds have antagonistic effects on arginine vasopressin receptors, and can inhibit the effect of cAMP in vivo, thereby inhibiting the occurrence and development of PKD. In this experiment, PKD1 knockout mice were used to evaluate the efficacy of these compounds.
1. Numbering the mice to perform gene identification: After 3 days of birth, the mice were marked by the method of cutting toes. The cut toes were placed in EP tubes marked in advance to boil, and then the genes were identified by agarose electrophoresis after PCR.
2. Preparation of corresponding medicaments: The corresponding weights of drugs were precisely weighed with an electronic balance and placed in new EP tubes. Then the corresponding amounts of HPMC were added with a pipette to prepare the medicaments of the desired concentration.
3. Administration to mice: The administrations of medicaments to mice was started on Day 6 or 5 after birth (the underweight mice were administered with medicaments on Day 6, and the rest of mice were administered with medicaments on Day 5), and the administration time was fixed (for example, 9:00 am). […]
5. Data processing: The total weight of the left and right kidneys, and the proportion of the kidneys, etc. were calculated.

[3] = tested on: MDCK cells; assay: PKD vesicle experiment (forskolin-induced vesicles of MDCK cells in matrigel); assay type: cell-based; conditions: 10 μM Forsklin, day 12
Protocol: The vesicles similar to those in PKD disease are formed by using MDCK cells under the action of AC enzyme agonist forskolin to simulate the occurrence and development of the disease, and the test compounds are respectively administered to observe their effects on the vesicles.
The MDCK cells were cultured at 37° C./5% CO2, with DMEM F12 medium (purchased from Combio technology company) supplemented with 10% fetal bovine serum and 1% double antibody.
During the re-cooling of matrigel, MDCK cells were digested and counted. […] The cells were incubated for 12 days, in which the medium was changed every 12 h, and photos were taken at days 4, 6, 8, 10, and 12. The photo area was selected to track the specific vesicles.
The diameters of vesicles were compared on day 12 to assess the effect of test compounds.

[4] = target: human V2R (Homo sapiens, UniProt P30518); conditions: for residence time: read-out: RT (residence time of the compound to be tested on cells); for koff: read-out: koff (dissociation constant between the compound to be tested and cells); for kon: read-out: kon (association constant between the compound to be tested and cells)
Sequence of human V2R (P30518 whole entry): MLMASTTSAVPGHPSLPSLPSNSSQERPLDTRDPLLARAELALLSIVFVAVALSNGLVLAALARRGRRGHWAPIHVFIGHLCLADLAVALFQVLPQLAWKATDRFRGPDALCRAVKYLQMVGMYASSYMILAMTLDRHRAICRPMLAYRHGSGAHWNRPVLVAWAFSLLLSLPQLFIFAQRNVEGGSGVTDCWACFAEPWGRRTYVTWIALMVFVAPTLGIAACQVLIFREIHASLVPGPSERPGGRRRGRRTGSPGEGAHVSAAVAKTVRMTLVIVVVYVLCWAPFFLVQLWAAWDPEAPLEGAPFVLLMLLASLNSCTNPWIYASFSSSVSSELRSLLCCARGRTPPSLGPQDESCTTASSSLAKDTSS

Structure (SMILES): Cc1ccccc1C(=O)Nc1ccc(C(=O)N2CCCC(O)c3cc(Cl)ccc32)c(C)c1 (stereo not drawn) [Tolvaptan, tolvaptan, reference compound]
- serum hepatic transaminases ([1]; clinical trials, some patients): increased to more than three times the normal level
- excretion rate of sodium and urea ([1]; prospective study, 30 ADPKD patients, after administration): increased
- Proportion of the kidneys % [2]: 15.80%
- The diameter of vesicles [3]: 183.7 μm

Structure (SMILES): Cc1ccccc1C(=O)Nc1ccc(C(=O)N2CCCC(NCCOc3ccccc3)c3cc(Cl)ccc32)c(C)c1 (stereo not drawn) [Compound 21, N-(4-(7-chloro-5-((2-phenoxyethyl)amino)-2,3,4,5-tetrahydro-1H-benzo[b]azepine-1-carbonyl)-3-methylphenyl)-2-methylbenzamide]
- Ki [4]: 77 ± 26 nM
- residence time [4]: 17 ± 2 min
- koff [4]: 0.001 s⁻¹
- kon [4]: 18300 M⁻¹ s⁻¹

Structure (SMILES): Cc1ccccc1C(=O)Nc1ccc(C(=O)N2CCCC(NCCCc3ccncc3)c3cc(Cl)ccc32)c(C)c1 (stereo not drawn) [Compound 5, N-(4-(7-chloro-5-((3-(pyridin-4-yl)propyl)amino)-2,3,4,5-tetrahydro-1H-benzo[b]azepine-1-carbonyl)-3-methylphenyl)-2-methylbenzamide]
- residence time [4]: 13 ± 1 min
- koff [4]: 0.00125 s⁻¹
- kon [4]: 165000 M⁻¹ s⁻¹
- affinity to V2R compared with Tolvaptan ([4]; text summary of Table 7): comparable to the affinity of Tolvaptan

Structure (SMILES): Cc1ccccc1C(=O)Nc1ccc(C(=O)N2CCCC(NCCCN3CCOCC3)c3cc(Cl)ccc32)c(C)c1 (stereo not drawn) [Compound 1, N-(4-(7-chloro-5-((3-morpholinopropyl)amino)-2,3,4,5-tetrahydro-1H-benzo[b]azepine-1-carbonyl)-3-methylphenyl)-2-methylbenzamide]
- Proportion of the kidneys % [2]: 11.85%
- The diameter of vesicles [3]: 172.0 μm

Structure (SMILES): Cc1ccccc1C(=O)Nc1ccc(C(=O)N2CCCC(NCCC(=O)N3CCOCC3)c3cc(Cl)ccc32)c(C)c1 (stereo not drawn) [Compound 13, N-(4-(7-chloro-5-((3-morpholino-3-oxopropyl)amino)-2,3,4,5-tetrahydro-1H-benzo[b]azepine-1-carbonyl)-3-methylphenyl)-2-methylbenzamide]
- residence time [4]: 9 ± 1 min
- koff [4]: 0.00183 s⁻¹
- kon [4]: 683000 M⁻¹ s⁻¹
- affinity to V2R compared with Tolvaptan ([4]; text summary of Table 7): comparable to the affinity of Tolvaptan

Structure (SMILES): Cc1ccccc1C(=O)Nc1ccc(C(=O)N2CCCC(NCCCN3CCN(C)CC3)c3cc(Cl)ccc32)c(C)c1 (stereo not drawn) [Compound 17, N-(4-(7-chloro-5-((3-(4-methylpiperazin-1-yl)propyl)amino)-2,3,4,5-tetrahydro-1H-benzo[b]azepine-1-carbonyl)-3-methylphenyl)-2-methylbenzamide]
- residence time [4]: 7 ± 1 min
- koff [4]: 0.00233 s⁻¹
- kon [4]: 350000 M⁻¹ s⁻¹

Structure (SMILES): Cc1ccccc1C(=O)Nc1ccc(C(=O)N2CCCC(NCCN3CCOCC3)c3cc(Cl)ccc32)c(C)c1 (stereo not drawn) [Compound 4, N-(4-(7-chloro-5-((2-morpholinoethyl)amino)-2,3,4,5-tetrahydro-1H-benzo[b]azepine-1-carbonyl)-3-methylphenyl)-2-methylbenzamide]
- residence time [4]: 21 ± 2 min
- koff [4]: 0.000783 s⁻¹
- kon [4]: 333000 M⁻¹ s⁻¹
- affinity to V2R compared with Tolvaptan ([4]; text summary of Table 7): comparable to the affinity of Tolvaptan
- residence time with receptor compared with Tolvaptan ([4]; text summary of Table 7): longer residence time with receptor than Tolvaptan

Structure (SMILES): Cc1ccccc1C(=O)Nc1ccc(C(=O)N2CCCC(NCCCCCN3CCOCC3)c3cc(Cl)ccc32)c(C)c1 (stereo not drawn) [Compound 3, N-(4-(7-chloro-5-((5-morpholinopentyl)amino)-2,3,4,5-tetrahydro-1H-benzo[b]azepine-1-carbonyl)-3-methylphenyl)-2-methylbenzamide]
- residence time [4]: 14 ± 2 min
- koff [4]: 0.00118 s⁻¹
- kon [4]: 105000 M⁻¹ s⁻¹

Structure (SMILES): Cc1ccccc1C(=O)Nc1ccc(C(=O)N2CCCC(NCCCCCOc3ccccc3)c3cc(Cl)ccc32)c(C)c1 (stereo not drawn) [Compound 24, N-(4-(7-chloro-5-((5-phenoxypentyl)amino)-2,3,4,5-tetrahydro-1H-benzo[b]azepine-1-carbonyl)-3-methylphenyl)-2-methylbenzamide]
- Ki [4]: 31 ± 7 nM
- residence time [4]: 7 ± 1 min
- koff [4]: 0.0025 s⁻¹
- kon [4]: 183000 M⁻¹ s⁻¹

Structure (SMILES): Cc1ccccc1C(=O)Nc1ccc(C(=O)N2CCCC(NCCCCN3CCOCC3)c3cc(Cl)ccc32)c(C)c1 (stereo not drawn) [Compound 2, N-(4-(7-chloro-5-((4-morpholinobutyl)amino)-2,3,4,5-tetrahydro-1H-benzo[b]azepine-1-carbonyl)-3-methylphenyl)-2-methylbenzamide]
- residence time [4]: 12 ± 2 min
- koff [4]: 0.00135 s⁻¹
- kon [4]: 160000 M⁻¹ s⁻¹
